# Reference: patent US12653189B2, “Herbicidal compositions comprising glyphosate” (BASF SE, priority 2023, dated 2026)
# How the values were obtained:
# Assay in all cases: Post-emergence application in field trials
# Format in all cases: in vivo
# [1] = test system: AMAPA (Amaranthus palmeri); details: Glyphosate (EPSPS) resistant AMAPA, height 5-23 cm; A-1 50 g ai/ha, B-6 840 g ai/ha; 21 DAT; water volume 140 l/ha; 1% v/v MSO + 2.5% v/v AMS
# Method: (§1) In the examples below, using the method of S. R. Colby (1967) “Calculating synergistic and antagonistic responses of herbicide combinations”, Weeds 15, p. 22ff., the value E, which is expected if the activity of the individual active compounds is only additive, was calculated:
# (§2) [formula] • where • X=percent activity using active herbicide A at an application rate a; • Y=percent activity using active glyphosate at an application rate b; • E=expected activity (in %) by A+B at application rates a+b.
# (§3) For 3- and 4-component mixtures (examples 3-5) the synergistic response was calculated as described in: Ferry, Nancy; Stanley, Bruce H.; and Armel, Gregory (2005). “DESIGN AND ANALYSIS OF BIOLOGICAL ASSAYS OF MIXTURES,” Conference on Applied Statistics in Agriculture. https://doi.org/10.4148/2475-7772.1133. According to this publication, the Colby calculation can be generalized to a third mixing partner, Z, employing the following formula: […]
# (§4) If the value found experimentally is higher than the value E calculated according to Colby, a synergistic effect is present.
# (§5) On field test sites, natural weed infestation or seeded weeds were treated post-emergence of the weeds.
# (§6) In the field trials, the weedy plants were treated as indicated below.
# (§7) Herbicide A-1 (342 g/I), glyphosate (480 g/I or 575 g/l) and optional herbicide C were, together with addition of 0.5% v/v MSO (methylated seed oil) as adjuvant (unless indicated otherwise), formulated in water as distribution medium as indicated and sprayed with commercial flat fan nozzles.
# (§8) In the following experiments, the herbicidal activity for the individual herbicidal compositions (solo and mixture applications) was assessed at the indicated days after treatment (DAT). The assessments for the damage on undesired weeds caused by the composition was carried out using a scale from 0 to 100%, compared to the untreated control plants. Here, 0 means no damage and 100 means complete destruction of the plants.
# [2] = test system: AMARE (Amaranthus retroflexus)
# Method: as §1, §2, §3, §4, §5, §6, §7, §8
# [3] = test system: BRADC (Brachiaria decumbens); details: A-1 50 g ai/ha, B-6 1080 g ai/ha, 21 DAT, water volume 100 l/ha, 0.5% v/v MSO
# Method: as §1, §2, §3, §4, §5, §6, §7, §8
# [4] = test system: COMBE (Commelina benghalensis); details: B-6 1080 g ai/ha, 21 DAT, water volume 200 l/ha, 0.5% v/v MSO
# Method: as §1, §2, §3, §4, §5, §6, §7, §8
# [5] = test system: DIGIN = TRCIN (Digitaria insularis); details: height 20-30 cm, A-1 50 g ai/ha, B-6 1080 g ai/ha, 7 DAT, water volume 200 l/ha, 0.5% v/v MSO
# Method: as §1, §2, §3, §4, §5, §6, §7, §8
# [6] = test system: ECHCG (Echinocloa crus-galli); details: growth stage 23-30, height 15-20 cm, water volume 200 l/ha, 0.25% v/v MSO
# Method: as §1, §2, §3, §4, §5, §6, §7, §8
# [7] = test system: ELEIN (Eleusine indica); details: growth stage 23-25, height 3-5 cm, A-1 25 g ai/ha, B-6 1080 g ai/ha, 20 DAT, water volume 200 l/ha, 0.5% v/v MSO
# Method: as §1, §2, §3, §4, §5, §6, §7, §8
# [8] = test system: GLXMA (Glycine max (soybean)); details: glyphosate-tolerant volunteer soybean M 6210 IPRO (GLXMA), growth stage 18; A-1 25 g ai/ha, B-6 1080 g ai/ha; 21 DAT; water volume 200 l/ha; 0.5% v/v MSO
# Method: as §1, §2, §3, §4, §5, §6, §7, §8
# [9] = test system: IPOTR (Ipomoea triloba); details: B-6 1080 g ai/ha, 21 DAT, water volume 200 l/ha, 0.5% v/v MSO
# Method: as §1, §2, §3, §4, §5, §6, §7, §8
# [10] = test system: PANMA (Panicum maximum); details: A-1 25 g ai/ha, B-6 1080 g ai/ha, 21 DAT, water volume 100 l/ha, 0.5% v/v MSO
# Method: as §1, §2, §3, §4, §5, §6, §7, §8
# [11] = test system: SPCHI (Spermacoce hispida); details: height 25 cm, A-1 25 g ai/ha, B-6 1080 g ai/ha, 21 DAT, water volume 100 l/ha, 0.5% v/v MSO
# Method: as §1, §2, §3, §4, §5, §6, §7, §8
# [12] = test system: ZEAMX (Zea mays (maize)); details: glyphosate-tolerant volunteer corn RB 9006 PRO 2 (ZEAMX), growth stage 18; A-1 25 g ai/ha, B-6 1080 g ai/ha; 21 DAT; water volume 200 l/ha; 0.5% v/v MSO
# Method: as §1, §2, §3, §4, §5, §6, §7, §8
# [13] = test system: AMATU; details: growth stage 19, height 10-20 cm, A-1 50 g ai/ha, B-6 840 g ai/ha, 23 DAT, water volume 140 l/ha, 1% v/v MSO + 2.5% v/v AMS
# Method: as §5, §6, §7, §8
# [14] = test system: HORVW (Hordeum vulgare (barley)); details: HORVW volunteer crop, growth stage 23-29, height 20-25 cm; A-1 + C-4 12.5 + 12.5, B-6 840, C-1 12.5 g ai/ha; 7 DAT; water volume 200 l/ha; 0.25% v/v MSO
# Method: as §1, §2, §3, §4, §5, §6, §7, §8
# [15] = growth stage 19, height 10-20 cm, A-1 50 g ai/ha, B-6 840 g ai/ha, 23 DAT, water volume 140 l/ha, 1% v/v MSO + 2.5% v/v AMS
# [16] = ECHCG, A-1 12.5, B-6 840, C-1 12.5 g ai/ha, 7 DAT
# [17] = ECHCG, A-1 12.5, B-6 840, C-1 12.5 g ai/ha, 28 DAT
# [18] = ECHCG, A-1 12.5, B-6 840, C-4 12.5 g ai/ha, 7 DAT
# [19] = Table 5.1: ECHCG, A-1 + C-1 12.5 + 12.5, B-6 840, C-4 12.5 g ai/ha, 7 DAT
# [20] = Table 5.2: ECHCG, A-1 + C-4 12.5 + 12.5, B-6 840, C-1 12.5 g ai/ha, 7 DAT
# [21] = growth stage 32, height 12 cm, A-1 + B-6 12.5 + 840, C-1 12.5, C-4 12.5 g ai/ha, 42 DAT, water volume 200 l/ha, 0.25% v/v MSO
SMILES,% Herbicidal activity [1] [%],"% Herbicidal activity [2, 15] [%]",% Herbicidal activity [3] [%],% Herbicidal activity ([4]; A-1 25 g ai/ha) [%],% Herbicidal activity ([4]; A-1 50 g ai/ha) [%],% Herbicidal activity [5] [%],"% Herbicidal activity [6, 16] [%]","% Herbicidal activity [6, 17] [%]","% Herbicidal activity [6, 18] [%]",% Herbicidal activity [7] [%],% Herbicidal activity [8] [%],% Herbicidal activity ([9]; A-1 25 g ai/ha) [%],% Herbicidal activity ([9]; A-1 50 g ai/ha) [%],% Herbicidal activity [10] [%],% Herbicidal activity [11] [%],% Herbicidal activity [12] [%],% Herbicidal activity [13] [%],"% Herbicidal activity [6, 19] [%]","% Herbicidal activity [6, 20] [%]",% Herbicidal activity [14] [%],further results
"CCOC(=O)COc1ccccc1Oc1nc(-n2c(=O)cc(C(F)(F)F)n(C)c2=O)c(F)cc1Cl [A-1, ethyl 2-[2-[[3-chloro-5-fluoro-6-[3-methyl-2,6-dioxo-4-(trifluoromethyl)pyrimidin-1-yl]-2-pyridyl]oxy]phenoxy]acetate]",74,73,71,60,82,58,30,20,30,82,93,82,88,73,30,53,73,,,,
"O=C(O)CNCP(=O)(O)O [B-6, glyphosate-potassium]",10,50,75,30,30,2,70,94,70,68,0,30,30,75,20,0,50,70,70,80,
"CC(C)N(C)S(=O)(=O)NC(=O)c1cc(-n2c(=O)cc(C(F)(F)F)n(C)c2=O)c(F)cc1Cl [C-1, saflufenacil]",,,,,,,20,20,,,,,,,,,,,20,0,"% Herbicidal activity [2, 21]: 55%"
"C#CCN1C(=O)C(F)(F)Oc2cc(F)c(-n3c(=O)n(C)c(=S)n(C)c3=O)cc21 [C-4, trifludimoxazin]",,,,,,,,,20,,,,,,,,,20,,,"% Herbicidal activity [2, 21]: 45%"
